Measured values: EP0898962A1, “Transdermal patches and methods for inactivating skin proteases” (Becton, Dickinson and Company, priority 1997, dated 1999)

Test: Incubation of peptide drugs on human skin
Type: in vitro ADME
Excerpt: Effects of proteases on in vivo or in vitro transdermal delivery has been reported for vasopressin and vasopressin analogues (Morimoto et al., Int. Journal Pharmaceutics 81: 119-125, 1992), des-enkephalon-γ-endorphin (Bodde et al., Biochem. Soc. Trans. 17: 943-945, 1989), leucine enkephalin (Choi at al., 1990), and salmon calcitonin (SCT) (Morimoto et al., J. Pharm. Pharmacol. 44; 216-218, 1992). This was concluded because addition of protease inhibitors appear to enhance delivery as determined by increased biological effect of the peptides. For example, camostat mesilate (a serine protease inhibitor) increased the hypocalcemic effect of iontophoretically-delivered SCT (Morimoto, J. Pharm. Pharmacol. 1992) and the antidiuretic effects of vasopressin delivered iontophoretically in rats (Morimoto, Int. Journal Pharmaceutics, 1992). We have observed that incubation of insulin analogues or SCT on human skin results in degradation, which supports the notion that proteolysis accounts for previously observed losses of these peptide drugs during iontophoretic delivery.

Substance: salmon calcitonin [SCT]
- result of incubation on human skin: degradation
